The conditions of data set [1]: mouse, in vivo, sc.
Procedure: In vivo biocompatibility of the polymer was evaluated by subcutaneous injection into mice through 18-gauge needles; 50 mg of polymer was injected for each mouse. At certain time point, mouse was sacrificed and the tissue of the injection site harvested, sectioned, and stained with H&E.
Data set [2] is described as follows: Solubility of drugs in water and in the semi-solid polymer. Format: physicochemical. The note with it: PCL-OE-1.
The nature of data set [3]: In vitro drug release from drug loaded semi-solid polymer in buffered saline. Type of data set: physicochemical. As to the method:
A certain amount of drugs (Ibuprofen or BSA) were grinded into fine particles and then mixed with certain amount of polymer in a glass vial. […] At certain time points, the buffer was removed for analysis and replaced with fresh buffer. The amount of Ibu released in the medium was measured by UV spectroscopy (Beckman Coulter, DU 640B spectrophotometer) for absorbance at 263 nm.

For data set [4] the following is noted: cited from earlier work.

As for “poly(ortho ester caprolactone) [PCL-OE-1]”, the “tissue damage or inflammatory response at injection site (H&E)” value in data set [1] is on record as “No visible tissue damage or inflammatory response”.
On to `CC(C)Cc1ccc(C(C)C(=O)O)cc1` (centres unmarked) [Ibu, Ibuprofen], for which the “solubility in the semi-solid polymer” value in data set [2] is recorded as “excellent solubility”. For the same molecule, in data set [3] (5 wt % in PCL-OE-1, pH 7.4 and pH 5.0), the “duration of sustained release of Ibu from the semi-solid polymer” value is on record as “at least three”. The “effect of pH on sustained release of Ibu” value in data set [3] (pH 7.4 versus pH 5.0) is recorded as “not affected by pH”. The solubility in water entry in data set [4] is “poor solubility in water”.

The record behind these values is patent US10179173B2, “Semi-solid delivery systems” (Regents of the University of Minnesota, priority 2012, dated 2019).
